Experimental data: patent US20230391774A1, “Novel Compounds” (AC Immune SA, priority 2020, published 2023)
“Also recorded” adds a separate entry of the source. Where a name gives a salt, the structure may show the parent alone.

How the values were obtained:
rTg4510 mice [1] = assay: In vivo efficacy: NFTs and neuroinflammation markers by immunohistochemistry; conditions: 100 mg/kg, immunohistochemistry (data not shown)
Text: (§1) Double transgenic rTg4510 mice express the full-length human Tau carrying the P301L mutation (Tau4RON-P301L) under the control of the tet-inducible (or tetracycline-inducible system) CaMKII promoter (Ramsden et al., J. Neurosci., 2005·25(46):10637-10647). Single transgenic mice expressing only the tetracycline-controlled transactivator (tTA) were used as genotype controls. The study comprised 4 treatment groups (n=15 female for tTa group and n=33 female mice/group for the treatment) with the following group distribution (see Table 5). Mice were distributed over 5 cohorts and cages were composed with an average of 3 mice per cage. Compounds or vehicle control were administered bi-daily by gavage for 4 weeks starting at the age of 5 months.
After incubation of this mixture at room temperature for 1 hour, 25 μL of Streptavidin Donor beads (Perkin Elmer) at 25 μg/mL were added in the dark. Plates were analyzed after 30 minutes incubation using the EnSpire Alpha instrument and EnSpire Workstation version 3.00.

[2] = target: T1, Tau K18 fragment aggregates (amino acids 244 to 372 of human Tau441) (Homo sapiens, UniProt P10636); assay: Tau K18 disaggregation assay by ThT; format: biochemical; conditions: ThT fluorescence; 2 μM K18 aggregates, 30 minutes at RT
T1 construct: encompassing amino acids 244 to 372 of the longest isoform (2N4R) of human Tau441; purchased Biotechne; host or cells: bacteria
Method: Tau K18 Disaggregation Assay by ThT
The Tau K18 fragment, encompassing amino acids 244 to 372 of the longest isoform (2N4R) of human Tau441, was expressed in bacteria and purified (Biotechne). For the K18 disaggregation assay by ThT, 35 μM of recombinant K18 in PBS were aggregated for 24 hours at 37° C. in presence of 25 μM of heparin (Sigma-Aldrich) and 10 mM of 1,4-Dithiothreito (DTT from Sigma-Aldrich) under shaking at 750 RPM. Compound 1 was dissolved in anhydrous dimethyl sulfoxide (DMSO, Sigma-Aldrich) to reach a concentration of 10 mM. K18 aggregates and serial dilutions of compounds were mixed together in PBS (volume 50 μL) to a final concentration of 2 μM of K18 aggregates and from 400 to 0.1 μM of Compound 1. The mixture was incubated for 30 minutes at room temperature (RT), then 40 μL of this mixture were transferred into a black 384-well plate assay (Perkin-Elmer) and mixed with 10 μL of 100 μM ThT in 250 mM glycine (both from Sigma-Aldrich) in PBS. Fluorescence (relative fluorescence units; RFU) was measured in monoplicate or duplicate on a Tecan reader (excitation: 440 nm; emission: 485 nm). Percentage of K18 disaggregation was then calculated and half maximal effective concentration (EC50) was determined using GraphPad Prism version 8 (GraphPad Software) assuming a one-binding site fitting model, see Table 3 and Table 4.

[3] = test system: misfolded Tau in SH-SY5Y cell line overexpressing full-length human Tau P301L; assay: Reduction of intracellular misfolded Tau; format: cell-based; conditions: 20 nM, 72 hours, differentiated P301L SH-SY5Y cells, MC1 antibody, vs DMSO control
Method: The SH-SY5Y cell line overexpressing the full-length form of human Tau carrying the P301L mutation were cultured in complete medium DMEM-F12 4.5 g/L Glutamax (Invitrogen), 15% FBS (Biochrom), 1% Peni/Strep (Invitrogen) supplemented with 2.5 μg/ml of G418 (Sigma-Aldrich) selection antibiotic. For the in vitro differentiation from neuroblastoma cells to neurons, cells were plated in 24-well plates (Costar 3337) on glass coverslips coated with Poly-D-Lysine at a seeding density of 2.5×10^3 cells. P301L SH-SY5Y cells were differentiated for 1 week at 37° C. in culture medium in presence of 10 μM retinoic acid (RA; Sigma, R2625). Every 48-72 h media was changed and fresh retinoic acid was added. For the treatment with compound 1, were dispensed on the cells at concentrations between 1-20 nM for 72 hours, with changing compounds every 24 h. After the incubation with Compound 1, cells were pre-fixed with 2% PFA for 5 min followed by a 15 min fixation with 4% PFA. […] Permeabilized fixed cells were then incubated overnight in 10% NGS/0.25% Triton X-100 in PBS with monoclonal anti-mouse MC1 antibody detected misfolded Tau (provided by Prof. Peter Davies, Albert Einstein College of Medicine, New York, USA) and polyclonal anti-rabbit total Tau (Abcam; ab64193) both diluted 1:1000.

rTg4510 mice [4] = assay: In vivo efficacy: aggregated Tau in cortical total brain homogenate (AlphaLISA); conditions: 100 mg/kg bi-daily by gavage for 4 weeks
Text: In Vivo Efficacy of the Compounds of the Present Invention
as §1, with “months. […]” for “months.”
To prepare cortical total brain homogenates (Cx-TBH), frozen brains were resuspended in 9 volumes/weight of ice-cold homogenization buffer [25 mM Tris-HCl pH 7.4, 150 mM NaCl, 1 mM EDTA, 1 mM EGTA containing phosphatase inhibitors (30 mM NaF, 0.2 mM Na3VO4, 1 nM Okadaic acid, 1 mM PMSF, 5 mM Na4P2O7) and protease inhibitor cocktail (Complete™, Roche)] and homogenized in Eppendorf tubes with a VWR pellet mixer (47747-370). […] Aggregated Tau in total cortical homogenate was quantified using the following antibody pairs: HT7-Acceptor beads+biotin (BT)-HT7-donor beads. […]

[5] = target: T2, flTau aggregates (longest isoform of human Tau, 2N4R) (Homo sapiens, UniProt P10636); assay: Full-length Tau (flTau) disaggregation assay by Thioflavin T (ThT); format: biochemical; conditions: ThT fluorescence; 60 nM flTau aggregates, 30 minutes at RT; read-out: flTau disaggregation EC50
T2 construct: 35 μM of recombinant full-length (fl) Tau in phosphate-buffered saline (PBS) were aggregated; purchased Biotechne; host or cells: bacteria
Procedure, shortened: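 Recombinant 2N4R Tau (35 μM) pre-aggregated 72 h at 37 °C with 35 μM heparin and 10 mM DTT under shaking. Aggregates (60 nM final) incubated 30 min at RT in PBS with compound (20–0.0012 μM), then ThT added; fluorescence read at ex 440/em 485 nm and EC50 fitted to one-site model.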

T2 sequence (P10636 1-441 isoform P10636-8): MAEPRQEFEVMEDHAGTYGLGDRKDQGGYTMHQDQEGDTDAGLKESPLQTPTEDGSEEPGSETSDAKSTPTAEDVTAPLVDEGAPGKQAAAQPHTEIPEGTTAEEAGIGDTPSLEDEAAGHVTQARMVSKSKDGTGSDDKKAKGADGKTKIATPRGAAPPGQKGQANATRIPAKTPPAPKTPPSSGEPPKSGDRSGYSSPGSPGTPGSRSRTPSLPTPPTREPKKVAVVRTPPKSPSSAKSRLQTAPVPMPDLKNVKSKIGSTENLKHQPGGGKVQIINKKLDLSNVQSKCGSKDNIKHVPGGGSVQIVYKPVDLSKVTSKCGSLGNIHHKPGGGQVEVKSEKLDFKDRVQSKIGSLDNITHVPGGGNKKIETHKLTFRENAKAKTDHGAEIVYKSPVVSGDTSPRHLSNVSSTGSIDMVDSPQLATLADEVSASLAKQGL
T1 sequence (P10636 561-689): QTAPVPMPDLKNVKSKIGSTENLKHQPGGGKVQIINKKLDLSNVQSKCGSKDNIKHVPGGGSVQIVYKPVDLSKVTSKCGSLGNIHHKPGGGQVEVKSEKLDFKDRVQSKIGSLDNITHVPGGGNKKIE

EC50 [2] [µM] | EC50 [5] [µM] | SMILES | other results
10 to 50 | 1 to 10 | Cn1cc(C2CCN(c3ccc4oc(N5CCOCC5)nc4c3)CC2)c2cc(F)ccc21 [Example 51, 5-(4-(5-fluoro-1-methyl-1H-indol-3-yl)piperidin-1-yl)-2-morpholinobenzo[d]oxazole] | 
1 to 10 | 1 to 10 | COc1ccc2c(C3CCN(c4ccc5oc(N6CCOCC6)nc5c4)CC3)c[nH]c2n1 [Example 104, 5-(4-(6-methoxy-1H-pyrrolo[2,3-b]pyridin-3-yl)piperidin-1-yl)-2-morpholinobenzo[d]oxazole] | 
10 to 50 | 1 to 10 | Cn1cc(C2CCN(c3cnc4nc(N5CCOCC5)sc4c3)CC2)c2cc(F)cnc21 [Example 109, 4-(6-(4-(5-fluoro-1-methyl-1H-pyrrolo[2,3-b]pyridin-3-yl)piperidin-1-yl)thiazolo[4,5-b]pyridin-2-yl)morpholine hydrochloride] | 
10 to 50 | 1 to 10 | Cn1cc(C2CCN(c3cc4sc(N5CCOCC5)nc4cn3)CC2)c2cc(F)cnc21 [Example 110, 4-(6-(4-(5-fluoro-1-methyl-1H-pyrrolo[2,3-b]pyridin-3-yl)piperidin-1-yl)thiazolo[4,5-c]pyridin-2-yl)morpholine hydrochloride] | 
1 to 10 | 1 to 10 | Cn1cc(C2CCN(c3ccc4nc(N5CCOCC5)oc4c3)CC2)c2cc(F)cnc21 [Example 111, 6-(4-(5-fluoro-1-methyl-1H-pyrrolo[2,3-b]pyridin-3-yl)piperidin-1-yl)-2-morpholinobenzo[d]oxazole hydrochloride] | 

Second part, the molecule before the results:

SMILES | EC50 [2] [µM] | EC50 [5] [µM] | other results
c1ccc2c(C3CCN(c4ccc5oc(N6CCOCC6)nc5c4)CC3)n[nH]c2c1 [Example 1, 5-(4-(1H-indazol-3-yl)piperidin-1-yl)-2-morpholinobenzo[d]oxazole] | < 1 | < 1 | NeuroFibrillary Tangles (NFTs) (rTg4510 mice [1]): significant decrease; neuroinflammation marker CD68 (rTg4510 mice [1]): significant decrease; neuroinflammation marker Iba1 (rTg4510 mice [1]): significant decrease; Reduction of intracellular misfolded Tau [3]: Reduction of intracellular misfolded Tau; also recorded: significantly different from DMSO control; aggregated Tau in Cortical Total brain homogenate (Cx-TBH) (rTg4510 mice [4]; 100 mg/kg): significantly decreased; aggregated Tau in Cortical Total brain homogenate (Cx-TBH) (rTg4510 mice [4]; listed as Compound 1, 100 mg/kg): decreased of aggregated Tau
c1ccc2c(C3CCN(c4ccc5oc(N6CCOCC6)nc5c4)C3)n[nH]c2c1 (centres unmarked) [Example 38, 5-(3-(1H-indazol-3-yl)pyrrolidin-1-yl)-2-morpholinobenzo[d]oxazole] | 1 to 10 | 1 to 10 | 
c1ccc2c(C3CCN(c4cnc5nc(N6CCOCC6)sc5c4)CC3)n[nH]c2c1 [Example 41, 4-(6-(4-(1H-indazol-3-yl)piperidin-1-yl)thiazolo[4,5-b]pyridin-2-yl)morpholine] | 1 to 10 | 1 to 10 | 
c1ccc2c(C3CCN(c4ccc5oc(N6CCOCC6)nc5n4)CC3)n[nH]c2c1 [Example 43, 5-(4-(1H-indazol-3-yl)piperidin-1-yl)-2-morpholinooxazolo[4,5-b]pyridine] | 1 to 10 | 1 to 10 | 
c1ccc2c(C3CCN(c4ccc5nc(N6CCOCC6)sc5c4)CC3)n[nH]c2c1 [Example 44, 4-(6-(4-(1H-indazol-3-yl)piperidin-1-yl)benzo[d]thiazol-2-yl)morpholine] | 1 to 10 | 1 to 10 | 
Cn1cc(C#Cc2ccc3oc(N4CCOCC4)nc3c2)c2cc(F)cnc21 [Example 46, 5-((5-fluoro-1-methyl-1H-pyrrolo[2,3-b]pyridin-3-yl)ethynyl)-2-morpholinobenzo[d]oxazole] | 1 to 10 | 1 to 10 | 
c1ccc2c(C3CCN(c4cnc5nc(N6CCOCC6)oc5c4)CC3)n[nH]c2c1 [Example 47, 6-(4-(1H-indazol-3-yl)piperidin-1-yl)-2-morpholinooxazolo[4,5-b]pyridine] | 10 to 50 | 1 to 10 | 
C1=C(c2n[nH]c3ccccc23)CCN(c2ccc3oc(N4CCOCC4)nc3c2)C1 [Example 50, 5-(4-(1H-indazol-3-yl)-3,6-dihydropyridin-1(2H)-yl)-2-morpholinobenzo[d]oxazole] | < 1 | < 1 | 
